Assay results: US20250073255A1, “USE OF FA-TYPE LIPID COMPOUNDS IN PREPARATION OF NUCLEIC ACID DELIVERY REAGENT AND RELATED PRODUCT” (BEIJING BAISHIKANG PHARMACEUTICAL TECHNOLOGY (BSJPHARMA) …, priority 2021, published 2025)

System: C57BL/6 male mice
Test: In vivo delivery study of lipid nucleic acid mixture (oral gavage, RT-qPCR of PGY-sRNA-26 in tissues)
Design: species or system mouse
Conditions: for oral delivery of single-stranded sRNA nucleic acids into mouse blood / oral delivery of single-stranded sRNA nucleic acids into mouse brain tissue / oral delivery of single-stranded sRNA nucleic acids into mouse femur / oral delivery of single-stranded sRNA nucleic acids into mouse heart tissue / oral delivery of single-stranded sRNA nucleic acids into mouse intestinal tissue / oral delivery of single-stranded sRNA nucleic acids into mouse kidney tissue / oral delivery of single-stranded sRNA nucleic acids into mouse liver tissue / oral delivery of single-stranded sRNA nucleic acids into mouse lung tissue / oral delivery of single-stranded sRNA nucleic acids into mouse pancreatic tissue / oral delivery of single-stranded sRNA nucleic acids into mouse spleen tissue / oral delivery of single-stranded sRNA nucleic acids into mouse stomach tissue: 100 μg lipid:10 nmol PGY-sRNA-26, sampled after 12 hours; for oral delivery of single-stranded sRNA nucleic acids into mouse heart tissue: vs free uptake group; for oral delivery of single-stranded sRNA nucleic acids into mouse intestinal tissue: intestine; for oral delivery of single-stranded sRNA nucleic acids into mouse pancreatic tissue: pancreas; for overall delivery efficacy: delivering nucleic acids into each tissue and blood tested: 100 μg lipid:10 nmol PGY-sRNA-26, all tissues and blood tested
How it was run: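 Lipid (100 μg) and 10 nmol 3'-methylated single-stranded PGY-sRNA-26 were heated at 90 °C for 15 min, then given by oral gavage to mice fasted 12 h. Controls were saline and free sRNA. Blood and tissues were taken at 12 h, and levels were measured by stem-loop RT-qPCR relative to U6.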

Row | SMILES | oral delivery of single-stranded sRNA nucleic acids into mouse blood | oral delivery of single-stranded sRNA nucleic acids into mouse brain tissue | oral delivery of single-stranded sRNA nucleic acids into mouse femur | oral delivery of single-stranded sRNA nucleic acids into mouse heart tissue | oral delivery of single-stranded sRNA nucleic acids into mouse intestinal tissue | oral delivery of single-stranded sRNA nucleic acids into mouse kidney tissue | oral delivery of single-stranded sRNA nucleic acids into mouse liver tissue | oral delivery of single-stranded sRNA nucleic acids into mouse lung tissue | oral delivery of single-stranded sRNA nucleic acids into mouse pancreatic tissue | oral delivery of single-stranded sRNA nucleic acids into mouse spleen tissue | oral delivery of single-stranded sRNA nucleic acids into mouse stomach tissue | overall delivery efficacy: delivering nucleic acids into each tissue and blood tested
1 | CCCCC/C=C\C/C=C\C/C=C\C/C=C\CCCC(=O)NCCCO [Lipid 808, (5Z,8Z,11Z,14Z)-N-(3-hydroxypropyl)icosa-5,8,11,14-tetraenamide] | can effectively orally deliver | can effectively orally deliver | can effectively orally deliver | can effectively orally deliver | can effectively orally deliver | can effectively orally deliver | can effectively orally deliver | can effectively orally deliver | can effectively orally deliver | can effectively orally deliver | can effectively orally deliver | –
2 | CCCCCCCCCCCCCCO [Lipid 635, tetradecan-1-ol] | can effectively orally deliver | can effectively orally deliver | can effectively orally deliver | can effectively orally deliver | can effectively orally deliver | can effectively orally deliver | can effectively orally deliver | can effectively orally deliver | – | can effectively orally deliver | can effectively orally deliver | best delivery efficacy
3 | O=C(O)CCC(=O)O [Lipid 628, butanedioic acid] | can effectively orally deliver | can effectively orally deliver | can effectively orally deliver | can effectively orally deliver | can effectively orally deliver | can effectively orally deliver | can effectively orally deliver | can effectively orally deliver | – | can effectively orally deliver | can effectively orally deliver | best delivery efficacy
4 | CCCCCCCCCCCCCC(=O)OCCCCCCCCCCCCCCC(C)C [Lipid 829, 15-methylhexadecyl tetradecanoate] | can effectively orally deliver | can effectively orally deliver | can effectively orally deliver | can effectively orally deliver | can effectively orally deliver | can effectively orally deliver | can effectively orally deliver | can effectively orally deliver | can effectively orally deliver | can effectively orally deliver | can effectively orally deliver | –
5 | CCCCCCCCCCCC(N)=O [Lipid 611, dodecanamide] | – | – | can effectively orally deliver | – | – | – | – | – | – | can effectively orally deliver | can effectively orally deliver | –
6 | CC1(O)CCCC1 [Lipid 503] | can effectively orally deliver | can effectively orally deliver | – | – | can effectively orally deliver | can effectively orally deliver | can effectively orally deliver | can effectively orally deliver | – | can effectively orally deliver | can effectively orally deliver | –
7 | CCCCC/C=C\C/C=C\C/C=C\C/C=C\CCCCCC(=O)O [Lipid 520, (7Z,10Z,13Z,16Z)-docosa-7,10,13,16-tetraenoic acid] | – | can effectively orally deliver | – | can effectively orally deliver | – | – | can effectively orally deliver | can effectively orally deliver | – | can effectively orally deliver | – | –
8 | CC(C(=O)O)C(=O)O [Lipid 596, 2-methylpropanedioic acid] | can effectively orally deliver | can effectively orally deliver | can effectively orally deliver | can effectively orally deliver | can effectively orally deliver | can effectively orally deliver | can effectively orally deliver | can effectively orally deliver | – | can effectively orally deliver | can effectively orally deliver | best delivery efficacy
9 | CCCCCCCCCC(N)=O [Lipid 573, Decanamide] | can effectively orally deliver | can effectively orally deliver | can effectively orally deliver | can effectively orally deliver | can effectively orally deliver | – | can effectively orally deliver | – | – | can effectively orally deliver | can effectively orally deliver | –
